Earlier results on two compounds are cited in US10842782B2, “Storage stable composition comprising rifaximin alpha” (Sandoz AG, priority 2016, dated 2020).

For this data set the following is noted: single 400 mg dose.

Regarding `CO[C@H]1/C=C/O[C@@]2(C)Oc3c(C)c(O)c4c(O)c(c5c(nc6cc(C)ccn65)c4c3C2=O)NC(=O)/C(C)=C\C=C\[C@H](C)[C@H](O)[C@@H](C)[C@@H](O)[C@@H](C)[C@H](OC(C)=O)[C@@H]1C` [Alpha, (2S,16Z,18E,20S,21S,22R,23R,24R,25S,26S,27S,28E)-5,6,21,23,25-pentahydroxy-27-methoxy-2,4,11,16,20,22,24,26-octamethyl-2,7-(epoxypentadeca[1,11,13]trienimino) benzofuro[4,5-e]pyrido[1,2-a]-benzimidazole-1,15(2H)-dione,25-acetate], the AUC was 17 ng·h/mL and the maximum concentration (Cmax) is 2.6 ng/mL.

In the case of `CO[C@H]1/C=C/O[C@@]2(C)Oc3c(C)c(O)c4c(O)c(c5c(nc6cc(C)ccn65)c4c3C2=O)NC(=O)/C(C)=C\C=C\[C@H](C)[C@H](O)[C@@H](C)[C@@H](O)[C@@H](C)[C@H](OC(C)=O)[C@@H]1C` [Delta, (2S,16Z,18E,20S,21S,22R,23R,24R,25S,26S,27S,28E)-5,6,21,23,25-pentahydroxy-27-methoxy-2,4,11,16,20,22,24,26-octamethyl-2,7-(epoxypentadeca[1,11,13]trienimino) benzofuro[4,5-e]pyrido[1,2-a]-benzimidazole-1,15(2H)-dione,25-acetate], the AUC is 830 ng·h/mL and the Cmax was 308.3 ng/mL.
